Experimental data: PubChem BioAssay AID686957 (The Scripps Research Institute Molecular Screening Center, 2013)
pIC50: −log10 of the molar value. Active and inactive are the calls of the source. No rule for the calls is given here.

Target: T-cell receptor (TCR)-CD3 interaction, human (TCR alpha chain TRAV4)
Assay: IC50 for blocking TCR-CD3 binding – biochemical, fluorescence, TAMRA-labeled TCR probe, dose response (AID 686957)

Q: Which IC50 does the source give for `CC(C)C(=O)Nc1ccc(C(=O)NNC(=S)NC(=O)c2ccccc2[N+](=O)[O-])cc1` here?
A: The IC50 was > 94.1 µM (inactive).

Q: For `COc1ccc(NC(=O)CSc2sc3c(O)cc(=O)[nH]c3c2C#N)c(OC)c1`, which IC50 is on record?
A: Its IC50 is > 94.1 µM (inactive).

Q: With `COc1ccc(C(=O)NNC(=S)NC(=O)c2cccs2)cc1` as the molecule, how does the IC50 read?
A: Its IC50 is > 94 µM (inactive).

Q: `COc1cc(Br)cc2cc(C(=O)N3CCN(C(=O)c4ccco4)CC3)c(=O)oc12` was tested. Which IC50 did it give?
A: The IC50 was > 94.1 µM (inactive).

Q: Which IC50 does the source give for `Cc1ccc(/C=C2\SC(=S)N(CCCC(=O)NNC(=O)c3ccccc3O)C2=O)cc1` here?
A: Its IC50 is > 94.1 µM (inactive).

Q: With `O=C(O)c1c[nH]c2c([N+](=O)[O-])cccc2c1=O` as the molecule, how does the IC50 read?
A: The IC50 was > 31.3 µM (inactive).

Q: For `CC(C)C(=O)Nc1ccc(C(=O)NNC(=S)NC(=O)c2ccco2)cc1`, which IC50 is on record?
A: Its IC50 is > 94.1 µM (inactive).

Q: For `CCOC(=O)Cn1c(=NC(=O)c2cc(-c3cccs3)nc3ccccc23)sc2cc(S(N)(=O)=O)ccc21`, which IC50 is on record?
A: Its IC50 is > 94.1 µM (inactive).

Q: `CC/C(=N\NC(=O)c1ccccc1O)c1c(O)n(Cc2ccccc2)c(=O)[nH]c1=O` was tested. Which IC50 did it give?
A: The IC50 was > 94.1 µM (inactive).

Q: With `Cc1nc(S/C(=C\c2ccc(-c3ccc(C(=O)O)c(Cl)c3)o2)C(=O)O)n[nH]1` as the molecule, how does the IC50 read?
A: The IC50 was > 94.1 µM (inactive).

Q: With `Cc1cc(/C=N/n2c(COc3ccccc3C)nc3ccccc3c2=O)c(O)c([N+](=O)[O-])c1` as the molecule, how does the IC50 read?
A: Its IC50 is > 94.1 µM (inactive).

Q: `COc1ccc2nc(C)cc(SCC(=O)N/N=C/c3ccc(O)c(O)c3)c2c1` was tested. Which IC50 did it give?
A: Its IC50 is > 94.1 µM (inactive).

Q: `O=C(N/N=C/c1cc(Br)ccc1O)c1cccc(N2CCCC2=O)c1` was tested. Which IC50 did it give?
A: The IC50 was > 94.1 µM (inactive).

Q: With `CNC(=S)NNC(=O)c1cccn(Cc2cccc(Cl)c2)c1=O` as the molecule, how does the IC50 read?
A: Its IC50 is > 94.1 µM (inactive).

Q: With `Nc1ccc2nc3c(=O)[nH]c(=S)[nH]c3nc2c1` as the molecule, how does the pIC50 read?
A: Its pIC50 is 5.43.

Q: With `CNC(=S)NNC(=O)c1cccn(Cc2ccccc2)c1=O` as the molecule, how does the IC50 read?
A: The IC50 was > 94.2 µM (inactive).

Q: Which IC50 does the source give for `Cc1c(C(=O)NNC(=O)c2ccccc2O)oc2ccccc12` here?
A: The IC50 was > 94 µM (inactive).

Q: Which IC50 does the source give for `CCOC(=O)c1c(C)[nH]c(C(=O)N/N=C/c2cc([N+](=O)[O-])ccc2O)c1C` here?
A: The IC50 was > 94.1 µM (inactive).

Q: With `O=[N+]([O-])c1ccc(O)c(/C=N/NC(=S)Nc2ccc(Cl)cc2Cl)c1` as the molecule, how does the IC50 read?
A: Its IC50 is > 94.1 µM (inactive).

Q: For `O=C1/C(=C/c2ccco2)SC(=S)N1c1cccnc1`, which IC50 is on record?
A: The IC50 was > 94.1 µM (inactive).

Q: How did the IC50 turn out when `O=C(Nc1cccc(S(=O)(=O)NC2=NCCC2)c1)c1cc(-c2ccco2)nc2ccccc12` was run?
A: Its IC50 is > 94.1 µM (inactive).

Q: How did the IC50 turn out when `O=C(CCN1CCN(c2ccccc2)CC1)N/N=C/c1ccc(O)c(O)c1O` was run?
A: The IC50 was > 94.1 µM (inactive).

Q: `O=C(O)CC(CCc1ccccc1)OC1OC(CO)C(O)C(O)C1O` (stereo not drawn) was tested. Which IC50 did it give?
A: Its IC50 is > 94.1 µM (inactive).

Q: For `Cc1nc2ccccc2n1CC(=O)c1ccc(O)c(O)c1`, which IC50 is on record?
A: Its IC50 is > 94 µM (inactive).

Q: With `O=c1cc(-c2ccc(O)c(O)c2)oc2ccc3ccccc3c12` as the molecule, how does the IC50 read?
A: The IC50 was > 94.2 µM (inactive).

Q: Which IC50 does the source give for `O=C(O)c1ccccc1NS(=O)(=O)c1ccc(N/N=C/c2ccc(O)c(O)c2)c([N+](=O)[O-])c1` here?
A: Its IC50 is “inactive”.

Q: `Nc1ccc([N+](=O)[O-])cc1C(=O)NNC(=O)c1ccco1` was tested. Which IC50 did it give?
A: Its IC50 is > 94.1 µM (inactive).

Q: Which IC50 does the source give for `COC(=O)CC1(C(=O)OC)Nc2cc(Cl)c(Cl)cc2S(=O)(=O)N1O` (stereo not drawn) here?
A: Its IC50 is > 94.2 µM (inactive).

Q: For `O=C(O)c1ccccc1/C=N/NC(=O)c1cc(-c2ccco2)nc2ccccc12`, which IC50 is on record?
A: The IC50 was > 94.1 µM (inactive).

Q: `O=C(NNC(=O)C1CCN(S(=O)(=O)c2ccccc2)CC1)c1ccccc1O` was tested. Which IC50 did it give?
A: The IC50 was > 94.1 µM (inactive).

Q: `Cc1c(CC(=O)N2CCN(C(=O)C3COc4ccccc4O3)CC2)c(=O)oc2c(O)c(O)ccc12` (stereo not drawn) was tested. Which pIC50 did it give?
A: The pIC50 was 5.22.

Q: For `O=C(NNC(=O)C1CCN(S(=O)(=O)c2ccccc2C(F)(F)F)CC1)c1ccccc1O`, which IC50 is on record?
A: The IC50 was > 94.1 µM (inactive).

Q: For `COc1ccc(/C=N\NC(=O)c2cc(O)c(O)c(O)c2)cc1CN1CCN(c2ccc(F)cc2)CC1`, which IC50 is on record?
A: The IC50 was > 94.2 µM (inactive).

Q: How did the IC50 turn out when `O=C(NNC(=S)NC(=O)c1cccs1)c1ccc(O)cc1` was run?
A: Its IC50 is > 94 µM (inactive).

Q: Which IC50 does the source give for `CCC(=O)Nc1ccc2nc3c(=O)[nH]c(=S)[nH]c3nc2c1` here?
A: Its IC50 is > 94.1 µM (inactive).

Q: For `Cn1c(=O)c(C(=O)NNC(=O)c2ccccc2F)c(O)c2ccccc21`, which IC50 is on record?
A: The IC50 was > 94.1 µM (inactive).

Q: With `COc1ccc(NC(=O)NNC(=O)c2ccc3ccccc3c2O)cc1OC` as the molecule, how does the IC50 read?
A: Its IC50 is > 94.1 µM (inactive).

Q: How did the IC50 turn out when `COc1ccc(C(=O)C=CNNC(=O)c2ccc(Cl)cc2)cc1` was run?
A: Its IC50 is > 94.1 µM (inactive).

Q: For `O=C(N/N=C/c1cccc([N+](=O)[O-])c1O)c1cccs1`, which IC50 is on record?
A: The IC50 was > 94.1 µM (inactive).

Q: With `Cc1ccccc1C(=O)NNC(=S)NC(=O)c1cccnc1` as the molecule, how does the IC50 read?
A: Its IC50 is > 94.1 µM (inactive).

Q: Which IC50 does the source give for `CC(=O)c1cccc(NC(=O)C(OC(=O)c2cccc(S(=O)(=O)N(C)c3ccccc3)c2)c2ccccc2)c1` (stereo not drawn) here?
A: The IC50 was “inactive”.

Q: For `O=C(N/N=C/c1cc(Br)cc(Br)c1O)c1cccc(N2CCCC2=O)c1`, which IC50 is on record?
A: Its IC50 is > 94.1 µM (inactive).

Q: With `Nc1ncnc2oc(-c3ccco3)c(-c3ccco3)c12` as the molecule, how does the IC50 read?
A: The IC50 was “inactive”.

Q: How did the IC50 turn out when `O=c1c(CO)cc(CO)cc(CO)c1O` was run?
A: Its IC50 is “inactive”.

Q: `Cc1ccc(S(=O)(=O)N2CCC(C(=O)NNC(=O)c3ccccc3O)CC2)cc1` was tested. Which IC50 did it give?
A: Its IC50 is > 94.1 µM (inactive).

Q: How did the IC50 turn out when `COc1ccccc1NC(=O)NNC(=O)c1cc2ccccc2cc1O` was run?
A: The IC50 was > 94.1 µM (inactive).

Q: How did the IC50 turn out when `O=C1Nc2ccccc2/C1=N\N=C\c1ccc(O)c(O)c1` was run?
A: The IC50 was > 94.1 µM (inactive).

Q: How did the IC50 turn out when `O=C(NNC(=O)c1ccccc1O)c1ccccc1O` was run?
A: The IC50 was > 93.9 µM (inactive).
